For data set [1], the target named is CYP3A4 (CYP3A) (Homo sapiens, UniProt P08684). Description: in vitro. To be noted: microsomes, pH 7.4.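 Also: inhibition of CYP3A-mediated 1-hydroxymidazolam formation after 10 min incubation with NADPH, quantified by HPLC MS relative to metabolite produced without test compound.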
Data set [2] addresses CYP2D6 (Homo sapiens, UniProt P10635). Description: CYP2D6 inhibition assay (bufuralol, pooled human liver microsomes).
For data set [3], the target named is Beta Secretase enzyme (BACE) (Homo sapiens, UniProt P56817). Description: In vitro enzymatic BACE FRET (fluorescence resonance energy transfer) assay.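 Also: fluorescence read after 1 h with 50 nM quenched peptide substrate spanning the BACE cleavage site, in pH 4.2 acetate buffer containing 10% DMSO and nonionic detergent.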 It is filed as biochemical.
A short description of data set [4]: Microsomal stability assay, human liver microsomes.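 Also: pooled human liver microsomes at 0.25 mg/mL with 1 µM compound and NADPH at 37 °C, pH 7.4, for 30 min, unchanged parent quantified by LC-MS/MS against the 0 min sample.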
The test system of data set [5] is Aβ40 in conditioned medium of cells stably expressing Amyloid Precursor Protein (APP). Description: In vitro BACE cell-based assay (Aβ40 in conditioned medium, sandwich ELISA).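 Also: compounds added as a dilution series, secreted peptide quantified by europium time-resolved fluorescence readout, potency fitted from percent of control versus compound concentration.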 To be noted: Homo sapiens.
Data set [6] is described as follows: Microsomal stability assay, rat liver microsomes.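 Also: rat liver microsomes (0.25 mg/mL) with about 1 µM compound plus 1 mM NADPH, pH 7.4, 37 °C for 30 min, parent left measured by LC-MS/MS against 0 min.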
Setting [7] is: 2D6 IC50, CYP enzyme inhibition.
[8] abbreviates: BACE enzyme assay, IC50's in uM, read-out: BACE1 FRET assay.
[9] abbreviates: HEK293, cell-based assay, HEK cells, IC50's in uM, read-out: HEK cell assay.
The mark [10] stands for this setting: 2D6 IC50 (uM), CYP2D6 inhibition.
Setting [11] is: BACE enzyme assay IC50, read-out: BACE1 FRET assay.
[12] abbreviates: HEK293, HEK cell-based assay IC50, read-out: HEK cell assay.
Where [13] appears, read: 2D6 IC50 (uM), CYP enzyme inhibition.
The mark [14] stands for this setting: BACE enzyme assay, read-out: BACE1 FRET assay.
Setting [15] is: HEK293, HEK cells, read-out: HEK cell assay.
Setting [16] is: read-out: BACE1 FRET assay (IC50).
The mark [17] stands for this setting: HEK293, HEK cells, read-out: HEK cell assay (IC50).
The mark [18] stands for this setting: Table 2, read-out: BACE1 FRET assay.
Where [19] appears, read: HEK293, Table 2, HEK cells, read-out: HEK cell assay.

Molecules are shown by their SMILES. Read-outs that look alike come from different tables or passages of the source.

Sequence of CYP2D6 (P10635 whole entry): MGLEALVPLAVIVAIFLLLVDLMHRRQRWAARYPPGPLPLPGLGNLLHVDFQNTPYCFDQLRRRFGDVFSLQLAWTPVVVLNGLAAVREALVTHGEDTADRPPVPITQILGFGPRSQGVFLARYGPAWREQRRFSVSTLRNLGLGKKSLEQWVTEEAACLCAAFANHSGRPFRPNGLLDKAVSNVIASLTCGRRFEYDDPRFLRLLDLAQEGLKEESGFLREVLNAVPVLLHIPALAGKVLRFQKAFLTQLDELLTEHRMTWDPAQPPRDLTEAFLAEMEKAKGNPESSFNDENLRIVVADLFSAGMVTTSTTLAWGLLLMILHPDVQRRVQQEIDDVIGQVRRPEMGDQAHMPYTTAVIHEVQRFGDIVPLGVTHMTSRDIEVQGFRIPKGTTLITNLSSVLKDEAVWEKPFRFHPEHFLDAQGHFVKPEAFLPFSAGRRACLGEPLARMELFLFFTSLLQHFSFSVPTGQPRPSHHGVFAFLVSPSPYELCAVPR
Sequence of Beta Secretase enzyme (BACE) (P56817 46-501): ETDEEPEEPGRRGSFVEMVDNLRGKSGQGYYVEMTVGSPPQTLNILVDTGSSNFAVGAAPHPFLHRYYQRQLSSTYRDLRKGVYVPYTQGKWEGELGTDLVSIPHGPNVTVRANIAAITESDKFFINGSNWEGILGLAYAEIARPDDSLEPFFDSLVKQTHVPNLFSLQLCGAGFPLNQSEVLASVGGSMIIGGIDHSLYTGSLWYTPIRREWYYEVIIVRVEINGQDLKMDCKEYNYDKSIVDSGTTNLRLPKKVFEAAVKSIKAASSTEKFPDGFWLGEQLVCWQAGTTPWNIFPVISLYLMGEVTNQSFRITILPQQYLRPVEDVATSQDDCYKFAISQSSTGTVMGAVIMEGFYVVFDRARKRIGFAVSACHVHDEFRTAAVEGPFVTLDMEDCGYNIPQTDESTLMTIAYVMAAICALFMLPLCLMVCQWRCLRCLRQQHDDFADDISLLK
Sequence of CYP3A4 (CYP3A) (P08684 2-503): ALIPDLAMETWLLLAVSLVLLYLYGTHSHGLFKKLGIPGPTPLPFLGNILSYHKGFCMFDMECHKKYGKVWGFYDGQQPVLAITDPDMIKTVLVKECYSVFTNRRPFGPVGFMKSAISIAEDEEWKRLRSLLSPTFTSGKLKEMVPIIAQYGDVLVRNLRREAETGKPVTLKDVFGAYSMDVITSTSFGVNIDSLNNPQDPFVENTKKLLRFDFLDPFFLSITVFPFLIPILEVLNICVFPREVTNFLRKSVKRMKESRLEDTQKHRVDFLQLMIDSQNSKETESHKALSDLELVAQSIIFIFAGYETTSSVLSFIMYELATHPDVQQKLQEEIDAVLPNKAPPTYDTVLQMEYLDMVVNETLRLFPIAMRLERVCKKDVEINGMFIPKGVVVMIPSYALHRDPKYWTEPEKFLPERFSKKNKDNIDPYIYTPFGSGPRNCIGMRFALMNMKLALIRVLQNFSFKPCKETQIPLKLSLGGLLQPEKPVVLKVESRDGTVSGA

Turning to `CO[C@H](C)C(=O)N[C@@H](Cc1cc(F)cc(-c2nccs2)c1)[C@H](O)CN[C@H]1CC2(CCC2)Oc2ncc(Br)cc21` [compound 852], the IC50 in data set [1] is 300 nM; in data set [2] (setting [7]) it was 0.3 µM; in data set [3] (setting [8]) it was 0.246 µM; in data set [5] (setting [9]), 0.094 µM. The molecule also displayed an HLM in data set [4] (human liver microsomal data) of 106 µL/min/mg. In data set [6] (rat liver microsomal data), the RLM amounted to 156 µL/min/mg.

With `COCC(=O)N[C@@H](Cc1ccc(F)c(-c2cscn2)c1)[C@H](O)CN[C@H]1CC2(CCC2)Oc2ncc(CC(C)(C)C)cc21` [compound 683, N-((1S,2R)-3-(((4′S)-6′-(2,2-dimethylpropyl)-3′,4′-dihydrospiro[cyclobutane-1,2′-pyrano[2,3-b]pyridin]-4′-yl)amino)-1-(4-fluoro-3-(1,3-thiazol-4-yl)benzyl)-2-hydroxypropyl)-2-methoxyacetamide], the IC50 in data set [1] amounted to 200 nM; in data set [2] (setting [10]), 2.3 µM; in data set [3] (setting [11]) it was 0.009 µM; in data set [5] (setting [12]), 0.031 µM. For the same molecule, the “HLM” value in data set [4] (human liver microsomes) was 102 µL/min/mg. Besides, the “RLM” value in data set [6] (rat liver microsomes) turned out to be 61 µL/min/mg.

Regarding `COCC(=O)N[C@@H](Cc1ccc(F)cc1)[C@H](O)CN[C@H]1CC2(CCC2)Oc2ncc(C(F)(F)C(C)(C)C)cc21` [compound 569], the IC50 is 700 nM in data set [1], no less than 27 µM in data set [2] (setting [13]), 0.165 µM in data set [3] (setting [14]) and 0.992 µM in data set [5] (setting [15]). Besides, in data set [4] (human liver microsomal data), the “HLM” value was 238 µL/min/mg. In addition, in data set [6] (rat liver microsomal data), the “RLM” value came to 423 µL/min/mg.

For the molecule `CC(=O)N[C@@H](Cc1cccc(-c2cccnc2)c1)[C@H](O)CN[C@H]1CC2(CCC2)Oc2ncc(CC(C)(C)C)cc21` [compound 623], the IC50 in data set [1] came out at 160 nM; in data set [2] (2D6 IC50, CYP2D6 inhibition), 1.3 µM; in data set [3] (setting [16]), 0.008 µM; in data set [5] (setting [17]), 0.006 µM. In data set [4] (human liver microsomes), this molecule had an HLM of 829 µL/min/mg. The same molecule returned an RLM in data set [6] (rat liver microsomes) of 601 µL/min/mg.

Consider `COCC(=O)N[C@@H](Cc1cc(F)cc(F)c1)[C@H](O)CN[C@H]1CC2(CCC2)Oc2c(Br)cc(CC(C)(C)C)cc21` [compound 464], for which the IC50 in data set [1] came out at 1500 nM; in data set [2] (setting [7]), 11.5 µM; in data set [3] (setting [18]), 0.004 µM; in data set [5] (setting [19]), 0.091 µM. The same molecule yielded an HLM in data set [4] (human liver microsomal data) of 463 µL/min/mg. Also, in data set [6] (rat liver microsomal data), the RLM came to 364 µL/min/mg.

For the molecule `CC(C)(C)Cc1cnc2c(c1)[C@@H](NC[C@@H](O)[C@H](Cc1ccc(F)cc1)NC(=O)[C@@H]1CN(Cc3ccccc3)CCO1)CC1(CCC1)O2` [compound 711], the IC50 in data set [1] is 300 nM; in data set [2] (setting [10]) it was 8.2 µM; in data set [3] (setting [11]) it was 0.04 µM; in data set [5] (setting [12]), 0.124 µM. Further, the “HLM” value in data set [4] (human liver microsomes) amounted to 706 µL/min/mg. Moreover, in data set [6] (rat liver microsomes), the “RLM” value was 399 µL/min/mg.

As for `COCC(=O)N[C@@H](Cc1ccc(F)c(F)c1)[C@H](O)CN[C@H]1CC(C)(C)Oc2ncc(CC(C)(C)C)cc21` [compound 676], the IC50 in data set [1] is 2000 nM; in data set [2] (setting [10]), 2.9 µM; in data set [3] (setting [11]), 0.01 µM; in data set [5] (setting [12]) it was 0.011 µM. Moreover, the “HLM” value in data set [4] (human liver microsomes) stood at 463 µL/min/mg. Moreover, the “RLM” value in data set [6] (rat liver microsomes) was 411 µL/min/mg.

In the case of `COCC(=O)N[C@@H](Cc1cccc(-c2nccs2)c1)[C@H](O)CN[C@H]1CC2(CCC2)Oc2ncc(C3CCCC3)cc21` [compound 886], the IC50 was 200 nM in data set [1], 0.3 µM in data set [2] (setting [7]), 0.143 µM in data set [3] (setting [8]) and 0.136 µM in data set [5] (setting [9]). This molecule also came in with an HLM in data set [4] (human liver microsomal data) of 55 µL/min/mg. In data set [6] (rat liver microsomal data), this molecule registered an RLM of 64 µL/min/mg.

On to `COCC(=O)N[C@@H](Cc1cccc(Br)c1)[C@H](O)CN[C@H]1CC2(CCC2)Oc2ncc(CC(C)C)cc21` [compound 800], for which the IC50 turned out to be 200 nM in data set [1]; 1.4 µM in data set [2] (setting [13]); 0.004 µM in data set [3] (setting [8]); 0.013 µM in data set [5] (HEK293, HEK cell-based assay, IC50's in uM, read-out: HEK cell assay). In addition, in data set [4] (human liver microsomal data), the “HLM” value came out at 921 µL/min/mg. Also, in data set [6] (rat liver microsomal data), the “RLM” value came to 459 µL/min/mg.

`CCOCC(=O)N[C@@H](Cc1cccc(F)c1)[C@H](O)CN[C@H]1CC2(CCC2)Oc2ncc(CC(C)(C)C)cc21` [compound 660]: the IC50 worked out at 200 nM in data set [1]; 1.9 µM in data set [2] (2D6 IC50, CYP2D6 inhibition); 0.003 µM in data set [3] (setting [16]); 0.018 µM in data set [5] (setting [17]). Moreover, the HLM in data set [4] (human liver microsomes) stood at 829 µL/min/mg. In data set [6] (rat liver microsomes), this molecule gave an RLM of 775 µL/min/mg.

As to `COCC(=O)N[C@@H](Cc1ccc2c(c1)OCO2)[C@H](O)CN[C@H]1CC2(CCC2)Oc2c1cc(CC(C)C)nc2Cl` [compound 656], the IC50 in data set [1] is 100 nM; in data set [2] (2D6 IC50, CYP2D6 inhibition), 5.3 µM; in data set [3] (setting [16]), 0.051 µM; in data set [5] (setting [17]), 0.774 µM. Moreover, in data set [4] (human liver microsomes), the HLM was 131 µL/min/mg. Also, the RLM in data set [6] (rat liver microsomes) worked out at 180 µL/min/mg.

As to `CC(=O)N[C@@H](Cc1cc(F)cc(F)c1)[C@H](O)CN[C@H]1CC2(CCC2)Oc2c1cc(CC(C)(C)C)nc2-c1cscn1` [compound 510], the IC50 in data set [1] worked out at 1100 nM; in data set [2] (setting [13]) it was 10.3 µM; in data set [3] (setting [14]), 0.008 µM; in data set [5] (setting [15]), 0.017 µM. Further, the “HLM” value in data set [4] (human liver microsomal data) came out at 380 µL/min/mg. Moreover, in data set [6] (rat liver microsomal data), the “RLM” value stood at 358 µL/min/mg.

For the molecule `CC(=O)N[C@@H](Cc1ccc(F)c(-c2ccco2)c1)[C@H](O)CN[C@H]1CC2(CCC2)Oc2ccc(CC(C)(C)C)cc21` [Example 432, N-((2S,3R)-4-((S)-2,2-spirocyclobutyl-6-neopentyl-3,4-dihydro-2H-chromen-4-ylamino)-1-(4-fluoro-3-(furan-2-yl)phenyl)-3-hydroxybutan-2-yl)acetamide], the IC50 is 1500 nM in data set [1]; 3.1 µM in data set [2] (2D6 IC50, CYP2D6 inhibition); 0.006 µM in data set [3] (setting [16]); 0.332 µM in data set [5] (setting [17]). In data set [4] (human liver microsomes), this molecule had an HLM of 280 µL/min/mg. Besides, the RLM in data set [6] (rat liver microsomes) worked out at 323 µL/min/mg.

Take `COCC(=O)N[C@@H](Cc1cc(F)cc(-c2nccs2)c1)C(=O)CN[C@H]1CC2(CCC2)Oc2ncc(CC(C)C)cc21` [compound 918]: the IC50 is 100 nM in data set [1], 0.5 µM in data set [2] (setting [7]), 0.0164 µM in data set [3] (setting [8]) and greater than 10 µM in data set [5] (setting [9]). The HLM in data set [4] (human liver microsomal data) came out at 116 µL/min/mg. The RLM in data set [6] (rat liver microsomal data) was found to be 128 µL/min/mg.

With `COCC(=O)N[C@@H](Cc1cc(F)cc(F)c1)[C@H](O)CN[C@H]1CC2(CCC2)Oc2c(-c3ccccc3F)cc(CC(C)(C)C)cc21` [compound 487], the IC50 in data set [1] is 1600 nM; in data set [2] (setting [13]), 21.4 µM; in data set [3] (setting [14]), 0.015 µM; in data set [5] (setting [15]), 0.118 µM. Further, in data set [4] (human liver microsomal data), the “HLM” value was found to be 394 µL/min/mg. The “RLM” value in data set [6] (rat liver microsomal data) amounted to 387 µL/min/mg.

On to `CC(=O)N[C@@H](Cc1cccc(F)c1)[C@H](O)CN[C@H]1CC2(CCC2)Oc2c(-c3ccncc3)cc(Cl)cc21` [compound 595], for which the IC50 in data set [1] came out at 100 nM; in data set [2] (2D6 IC50, CYP2D6 inhibition) it was 0.5 µM; in data set [3] (setting [16]) it was 0.077 µM; in data set [5] (setting [17]) it was 0.051 µM. The molecule further came in with an HLM in data set [4] (human liver microsomes) of 147 µL/min/mg. The molecule further showed an RLM in data set [6] (rat liver microsomes) of 736 µL/min/mg.

As for `CC(=O)N[C@@H](Cc1cc(F)cc(F)c1)[C@H](O)CN[C@H]1CC2(CCC2)Oc2c1cc(CC(C)(C)C)nc2-c1cncs1` [compound 481], the IC50 in data set [1] was 200 nM; in data set [2] (setting [7]) it was 7.9 µM; in data set [3] (setting [18]), 0.004 µM; in data set [5] (setting [19]) it was 0.123 µM. The molecule also yielded an HLM in data set [4] (human liver microsomal data) of 155 µL/min/mg. For the same molecule, the RLM in data set [6] (rat liver microsomal data) stood at 177 µL/min/mg.

The record behind these values is patent publication US8163909B2, “Substituted hydroxyethyl amine compounds as beta-secretase modulators and methods of use” (Amgen Inc., priority 2007, dated 2012).
